The values that follow come from patent US6436984B1, “Melatonin derivatives and medicine containing same” (Centre National de la Recherche Scientifique (CNRS), priority 1998, dated 2002).

The experiment deals with P 815 line. Put plainly: cell proliferation of the P 815 line (tritiated thymidine incorporation). Type of experiment: cell-based. The following applies: P 815 cells, 7 hours incubation in RPMI medium with phenol red, tritiated thymidine added after 3 hours, radioactivity associated with the DNA. The method, then: The biological activity of the derivative of formula I was compared with dipropylenetriamine NONOate (A), melatonin (B) and a dipropylenetriamine NONOate and melatonin (1/2) mixture (C) on the cell preparation of the cell proliferation of the P 815 line.
The cells are incubated with the products in RPMI medium with phenol red for 7 hours. Tritiated thymidine is added after incubating for 3 hours.
The results are shown on the curve in the single appended FIGURE, where the concentration of product (μM) is carried on the abscissa and the radioactivity associated with the DNA (cpm) is carried on the ordinate.

On to `COc1ccc2c(c1)c(CCNC(C)=O)cn2N=O` [compound of formula I, N1-nitrosomelatonin], for which the concentration for half-maximal inhibition (IC50) (Mus musculus, P815) came out at 280 µM.
For the compound `NCCCN(CCCN)/[N+]([O-])=N/O` [dipropylenetriamine NONOate (A), dipropylenetriamine NONOate], the IC50 amounted to 150 µM.
